{"source": "paper PMC8679620", "about": "“Receptor-Targeted Photodynamic Therapy of Glucagon-Like Peptide 1 Receptor–Positive Lesions” (Journal of Nuclear Medicine, 2020)", "origin": "cited, not measured here", "settings": "at 689 nm; ref [12],[17]", "source_text": "Exendin-4-IRDye700DX was supplied by piCHEM. IRDye700DX NHS ester was obtained from LI-COR Biosciences.", "data": [{"smiles": "C[Si](C)(CCC[N+](CCCS(=O)(=O)[O-])(CCCS(=O)(=O)[O-])CCCS(=O)(=O)[O-])O[Si]1(O[Si](C)(C)CCC[N+](CCCS(=O)(=O)[O-])(CCCS(=O)(=O)[O-])CCCS(=O)(=O)[O-])n2c3c4ccccc4c2N=C2N=C(N=c4c5ccccc5c(n41)=NC1=NC(=N3)c3ccccc31)c1cccc(OCCCOC(=O)NCCCCCC(=O)ON3C(=O)CCC3=O)c12.[Na+].[Na+].[Na+].[Na+]", "note": "(stereo not shown) [IRDye700DX]", "values": [{"measurement": "extinction coefficient", "result": 210000, "unit": "M⁻¹ cm⁻¹"}]}]}
